Patent US20220015372A1, “BIOLOGICALS AND THEIR USE IN PLANTS” (PIONEER HI-BRED INTERNATIONAL, INC., priority 2018, published 2022)

Key:
[1] = test system: European corn borer (ECB, Ostrinia nubilalis); test: Lepidoptera diet-based feeding assay, ECB; assay type: in vivo; settings: serial dilutions of Kings Medium fermentate (depsipeptide 55 ug/ml) in artificial diet
Method: (§1) Lepidopteran feeding assays (including FAW) were conducted on an artificial diet containing fermented broth in a 96 well plate set up. The broth was incorporated with multi-species Lepidopteran artificial diet (Southland Products Inc., Arkansas) in a ratio of 25 μl test sample and 35 μl of diet. Two to five neonate larvae were placed in each well to feed for 4 days. Results were expressed as positive for larvae reactions such as stunting and/or mortality. Results were expressed as negative if the larvae were similar to the negative control that is fed diet to which the above control broth only has been applied.

[2] = test system: Fall Armyworm (FAW, Spodoptera frugiperda); test: Lepidoptera diet-based feeding assay, FAW; assay type: in vivo; settings: serial dilutions of Kings Medium fermentate (depsipeptide 55 ug/ml) in artificial diet
Method: as §1

[3] = test system: soybean looper (SBL, Pseudoplusia includens); test: Lepidoptera diet-based feeding assay, SBL; assay type: in vivo; settings: serial dilutions of Kings Medium fermentate (depsipeptide 55 ug/ml) in artificial diet
Method: as §1

[4] = test system: Western Corn Rootworm (WCRW, Diabrotica virgifera virgifera); test: Coleoptera diet based feeding assay, WCRW; assay type: in vivo; settings: serial dilutions of Kings Medium fermentate (depsipeptide 55 ug/ml) in artificial diet
Method: Western Corn Rootworm (WCRW, Diabrotica virgifera virgifera) bioassays were conducted in a 96 well plate format, mixing 10 μl of test sample with 50 μl molten modified Southern Corn Rootworm diet (Frontier Agricultural Sciences, diet F9800B). WCRW neonates were placed into each well before heat sealed with a Mylar film. Holes are punched in the film to allow air exchange. The assay was run four days at 25° C. in the dark. The plates were then scored for insect mortality and stunting of insect growth. The scores were noted as dead, severely stunted (little or no growth but alive), stunted (growth but not equivalent to controls) or no activity.

[5] = test system: corn earworm (Hehcoverpa zea); test: Lepidoptera diet-based feeding assay, CEW; assay type: in vivo, Helicoverpa zea; settings: serial dilutions of Kings Medium fermentate (depsipeptide 55 ug/ml) in artificial diet
Method: as §1

[6] = test system: corn earworm (Helicoverpa zea; CEW); test: Medium-sized plant-based assay on bush bean, CEW; assay type: in vivo; parameters: key to insect live or dead: live=F; dead=K
Method: (§2) Broths A and B were tested against four insect species in medium insect test units; DBM, FAW, beet armyworm (Spodoptera exigua; BAW), and corn earworm (Helicoverpa zea; CEW). Test units were comprised of 70 cm^3 bases with 35 g of Woodstown Sandy Loam soil (Delmar, Del.) and mustard (Brassicae kaber; 6.5-7 cm), corn (Zea mays; 7-8 cm) or Bush bean (Phaseolus vulgaris; 6-7cm) as host plants for DBM, FAW and BAW, and CEW, respectively. Three concentrations of Broths A and B were tested: 0.25, 0.5 and 1×, with and without the surfactant X-77. Spinetoram was included as a positive control. Untreated controls were also included. Test units were sprayed with 1.2 mL of broth, in triplicate, and subsequently infested with approximately 15-20 stage 1 BAW or FAW larvae, or 30-40 neonate DBM or CEW. Units were kept in controlled conditions of 25° C./70% RH/16:8 h (L:D) photoperiod for six days and then scored. There are two scores given for each treatment, (1) plant damage rating from 0-10, with 0 being no damage and 10 being plant was completely consumed, and (2) insect live or dead (live=F; dead=K). The scores are averages of the three technical replicates. Any treatment with a plant damage score of 3 or less and an insect rating of K was considered to be active.

[7] = test system: beet armyworm (Spodoptera exigua; BAW); test: Medium-sized plant-based assay on corn, BAW; assay type: in vivo; parameters: key to insect live or dead: live=F; dead=K
Method: as §2

FAW = test: Medium-sized plant-based assay on corn, FAW; assay type: in vivo, Spodoptera frugiperda; parameters: key to insect live or dead: live=F; dead=K
Method: as §2

[8] = 0.1 ppm, Table 3 assay without X-77, six days
[9] = 0.1 ppm, Table 4 assay with X-77, six days
[10] = 0.2 ppm, Table 3 assay without X-77, six days
[11] = 0.2 ppm, Table 4 assay with X-77, six days
[12] = 2 ppm, Table 3 assay without X-77, six days
[13] = 2 ppm, Table 4 assay with X-77, six days

Substance: FR901375 [depsipeptide]
- minimal dose to achieve 100% mortality [1]: 2 ppm
- minimal dose to achieve 100% mortality [2]: 2 pmm
- minimal dose to achieve 100% mortality [3]: 1 ppm
- minimal dose to achieve 100% mortality [4]: 23 ppm
- minimal dose to achieve 100% mortality [5]: 11 ppm

Substance: Spinetoram
- insect live or dead [6, 8]: K
- plant damage rating from 0-10 [6, 8]: 1
- insect live or dead [6, 9]: K
- plant damage rating from 0-10 [6, 9]: 1
- insect live or dead [6, 10]: K
- plant damage rating from 0-10 [6, 10]: 1
- insect live or dead [6, 11]: K
- plant damage rating from 0-10 [6, 11]: 1
- insect live or dead [6, 12]: K
- plant damage rating from 0-10 [6, 12]: 0
- insect live or dead [6, 13]: K
- plant damage rating from 0-10 [6, 13]: 0
- insect live or dead [7, 8]: F
- plant damage rating from 0-10 [7, 8]: 7
- insect live or dead [7, 9]: F
- plant damage rating from 0-10 [7, 9]: 7
- insect live or dead [7, 10]: F
- plant damage rating from 0-10 [7, 10]: 4
- insect live or dead [7, 11]: F
- plant damage rating from 0-10 [7, 11]: 4
- insect live or dead [7, 12]: K
- plant damage rating from 0-10 [7, 12]: 0
- insect live or dead [7, 13]: F
- plant damage rating from 0-10 [7, 13]: 4
- insect live or dead (FAW; [8]): F
- plant damage rating from 0-10 (FAW; [8]): 5
- insect live or dead (FAW; [9]): F
- plant damage rating from 0-10 (FAW; [9]): 5
- insect live or dead (FAW; [10]): K
- plant damage rating from 0-10 (FAW; [10]): 1
- insect live or dead (FAW; [11]): K
- plant damage rating from 0-10 (FAW; [11]): 1
- insect live or dead (FAW; [12]): K
- plant damage rating from 0-10 (FAW; [12]): 0
- insect live or dead (FAW; [13]): K
- plant damage rating from 0-10 (FAW; [13]): 0
